ChEMBL document CHEMBL1132382 (J Med Chem, 1999)
Values after ≈ are worked out from the molar mass of the structure shown.

What was measured:
Carbonic anhydrase 4 = target: T1, Carbonic anhydrase 4 (Bos taurus, UniProt Q95323)
T1 sequence (Q95323 whole entry): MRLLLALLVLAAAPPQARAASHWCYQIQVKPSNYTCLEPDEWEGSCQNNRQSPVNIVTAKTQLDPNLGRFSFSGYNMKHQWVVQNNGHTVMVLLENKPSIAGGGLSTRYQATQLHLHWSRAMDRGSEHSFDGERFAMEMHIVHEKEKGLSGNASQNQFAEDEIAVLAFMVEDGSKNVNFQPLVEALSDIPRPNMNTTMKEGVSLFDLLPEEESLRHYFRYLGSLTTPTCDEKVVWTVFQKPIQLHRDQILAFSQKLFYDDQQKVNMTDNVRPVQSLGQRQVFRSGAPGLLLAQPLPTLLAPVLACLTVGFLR
Description: Inhibitory activity against bovine carbonic anhydrase IV (CA4), isolated from bovine lung microsomes

Oryctolagus cuniculus [1] = species: Oryctolagus cuniculus; assay: The compound was evaluated for fall in intraocular pressure (IOP) of Normotensive rabbits after treatment with one drop (50 microL) of a 2% solution at 0 min (pH 6.4); type: functional, Eye
Oryctolagus cuniculus [2] = species: Oryctolagus cuniculus; assay: The compound was evaluated for fall in intraocular pressure (IOP) of Normotensive rabbits after treatment with one drop (50 microL) of a 2% solution at 90 min (pH 6.4); type: functional, Eye
Oryctolagus cuniculus [3] = species: Oryctolagus cuniculus; assay: The compound was evaluated for fall in intraocular pressure (IOP) of Normotensive rabbits after treatment with one drop (50 microL) of a 2% solution at 30 min (pH 6.4); type: functional, Eye
Oryctolagus cuniculus [4] = species: Oryctolagus cuniculus; assay: The compound was evaluated for fall in intraocular pressure (IOP) of Normotensive rabbits after treatment with one drop (50 microL) of a 2% solution at 60 min (pH 6.4); type: functional, Eye
Carbonic anhydrase 1 = Carbonic anhydrase 1 (Homo sapiens, UniProt P00915)
Chain of Carbonic anhydrase 1 (P00915 whole entry): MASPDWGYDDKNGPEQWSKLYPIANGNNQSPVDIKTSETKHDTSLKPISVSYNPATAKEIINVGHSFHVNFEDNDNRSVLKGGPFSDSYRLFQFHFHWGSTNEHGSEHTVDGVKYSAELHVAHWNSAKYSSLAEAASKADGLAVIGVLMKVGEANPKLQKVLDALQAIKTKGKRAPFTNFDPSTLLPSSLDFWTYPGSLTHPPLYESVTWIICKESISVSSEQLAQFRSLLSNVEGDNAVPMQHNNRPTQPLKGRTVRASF
Description: Inhibitory activity against human recombinant carbonic anhydrase I (CA1)

[5] = not given; remark: listed apart in the source
[6] = octanol/water
Description: Partition coefficient (logD) (chloroform/buffer)

physchem = conditions: buffer, pH 7.4
Oryctolagus cuniculus [7] = species: Oryctolagus cuniculus; assay: The compound was evaluated for fall in intraocular pressure (IOP) of Normotensive rabbits after treatment with one drop (50 microL) of a 2% solution at 0 min (pH 6.5); type: functional, Eye
Oryctolagus cuniculus [8] = species: Oryctolagus cuniculus; assay: The compound was evaluated for fall in intraocular pressure (IOP) of Normotensive rabbits after treatment with one drop (50 microL) of a 2% solution at 30 min (pH 6.5); type: functional, Eye
Oryctolagus cuniculus [9] = species: Oryctolagus cuniculus; assay: The compound was evaluated for fall in intraocular pressure (IOP) of Normotensive rabbits after treatment with one drop (50 microL) of a 2% solution at 60 min (pH 6.5); type: functional, Eye
Oryctolagus cuniculus [10] = species: Oryctolagus cuniculus; assay: The compound was evaluated for fall in intraocular pressure (IOP) of Normotensive rabbits after treatment with one drop (50 microL) of a 2% solution at 90 min (pH 6.5); type: functional, Eye
Oryctolagus cuniculus [11] = species: Oryctolagus cuniculus; assay: The compound was evaluated for fall in intraocular pressure (IOP) of Normotensive rabbits after treatment with one drop (50 microL) of a 2% solution at 30 min (pH 5.5); type: functional, Eye
Oryctolagus cuniculus [12] = species: Oryctolagus cuniculus; assay: The compound was evaluated for fall in intraocular pressure (IOP) of Normotensive rabbits after treatment with one drop (50 microL) of a 2% solution at 0 min (pH 5.5); type: functional, Eye
Oryctolagus cuniculus [13] = species: Oryctolagus cuniculus; assay: The compound was evaluated for fall in intraocular pressure (IOP) of Normotensive rabbits after treatment with one drop (50 microL) of a 2% solution at 60 min (pH 5.5); type: functional, Eye
Oryctolagus cuniculus [14] = species: Oryctolagus cuniculus; assay: The compound was evaluated for fall in intraocular pressure (IOP) of Normotensive rabbits after treatment with one drop (50 microL) of a 2% solution at 90 min (pH 5.5); type: functional, Eye

Structure (SMILES) | Ki (Carbonic anhydrase 4) | Ki (Carbonic anhydrase 1) | also measured
CC(=O)/N=c1/sc(S(N)(=O)=O)nn1C [METHAZOLAMIDE] | – | – | kin: 1.9 h⁻¹; kin [5]: 13 h⁻¹; logD [6]: 0.06
NCC(=O)NCC(=O)Nc1ccc(S(=O)(=O)Nc2cccc(S(N)(=O)=O)c2)cc1 | 60 nM | 55 nM | –
NCC(=O)Nc1nccc(Nc2ccc(S(N)(=O)=O)cc2)n1 | 75 nM | 61 nM | –
NCC(=O)NCC(=O)Nc1ccc(S(N)(=O)=O)cc1Cl | 65 nM | 550 nM | –
NCC(=O)Nc1ccc(S(N)(=O)=O)cc1Br | 73 nM | 600 nM | –
CN(CC(=O)NCCc1ccc(S(N)(=O)=O)cc1)C(=N)N | 64 nM | 775 nM | –
CNCC(=O)Nc1cc(Cl)c(S(N)(=O)=O)cc1S(N)(=O)=O | 50 nM | 350 nM | Change in IOP (Oryctolagus cuniculus [11]): 2.5 mmHg; Change in IOP (Oryctolagus cuniculus [12]): 0 mmHg; Change in IOP (Oryctolagus cuniculus [13]): 5.2 mmHg; Change in IOP (Oryctolagus cuniculus [14]): 4.5 mmHg; kin: 4.6 h⁻¹; kin [5]: 7.9 h⁻¹; logD [6]: 1.569; solubility (physchem): 54 mM (≈ 19.3 mg/mL)
CN(CC(=O)Nc1ccc(S(N)(=O)=O)cc1Br)C(=N)N | 62 nM | 525 nM | –
CN(CC(=O)Nc1ccc(S(=O)(=O)Nc2ccc(S(N)(=O)=O)cc2)cc1)C(=N)N | 51 nM | 46 nM | –
NCC(=O)NCC(=O)Nc1nccc(Nc2ccc(S(N)(=O)=O)cc2)n1 | 69 nM | 60 nM | –
CN(CC(=O)Nc1ccc(S(N)(=O)=O)cc1Cl)C(=N)N | 60 nM | 510 nM | –
CNCC(=O)Nc1ccc(S(=O)(=O)Nc2cccc(S(N)(=O)=O)c2)cc1 | 61 nM | 51 nM | –
CNCC(=O)Nc1ccc(S(=O)(=O)Nc2ccc(S(N)(=O)=O)cc2)cc1 | 62 nM | 50 nM | Change in IOP (Oryctolagus cuniculus [7]): 0 mmHg; Change in IOP (Oryctolagus cuniculus [8]): 2.5 mmHg; Change in IOP (Oryctolagus cuniculus [9]): 6.3 mmHg; Change in IOP (Oryctolagus cuniculus [10]): 5.5 mmHg
CNCC(=O)Nc1ccc(S(N)(=O)=O)cc1Cl | 62 nM | 510 nM | –
NCC(=O)Nc1ccc(S(=O)(=O)Nc2ccc(S(N)(=O)=O)cc2)cc1 | 86 nM | 62 nM | –
NCC(=O)Nc1ccc(S(N)(=O)=O)cc1F | 46 nM | 540 nM | –
CN(CC(=O)Nc1ccc(S(N)(=O)=O)cc1I)C(=N)N | 69 nM | 545 nM | –
NCC(=O)NCc1ccc(S(N)(=O)=O)cc1 | 82 nM | 1400 nM | –

The remaining compounds from weak to strong by Ki (Carbonic anhydrase 4), led by results:

Ki (Carbonic anhydrase 4) | Ki (Carbonic anhydrase 1) | Structure (SMILES) | also measured
46 nM | 500 nM | CNCC(=O)Nc1ccc(S(N)(=O)=O)cc1F | –
43 nM | 290 nM | CNCC(=O)/N=c1\sc(S(N)(=O)=O)nn1C | Change in IOP (Oryctolagus cuniculus [7]): 0 mmHg; Change in IOP (Oryctolagus cuniculus [8]): 3.3 mmHg; Change in IOP (Oryctolagus cuniculus [9]): 6.2 mmHg; Change in IOP (Oryctolagus cuniculus [10]): 5.5 mmHg
40 nM | 53 nM | CN(CC(=O)Nc1nccc(Nc2ccc(S(N)(=O)=O)cc2)n1)C(=N)N | –
39 nM | 305 nM | CNCC(=O)Nc1nnc(S(N)(=O)=O)s1 | –
35 nM | 98 nM | CCN(C(=O)CN)C1CC(C)S(=O)(=O)c2sc(S(N)(=O)=O)cc21 (stereo not drawn) | –
31 nM | 90 nM | CCN(C(=O)CNC(=O)CN)C1CC(C)S(=O)(=O)c2sc(S(N)(=O)=O)cc21 (stereo not drawn) | Change in IOP (Oryctolagus cuniculus [1]): 0 mmHg; Change in IOP (Oryctolagus cuniculus [2]): 6.9 mmHg; Change in IOP (Oryctolagus cuniculus [3]): 4.9 mmHg; Change in IOP (Oryctolagus cuniculus [4]): 8.7 mmHg
30 nM | 11 nM | CNCC(=O)NS(=O)(=O)c1nc2ccc(O)cc2s1 | –
27 nM | 75 nM | CCN(C(=O)CN(C)C(=N)N)C1CC(C)S(=O)(=O)c2sc(S(N)(=O)=O)cc21 (stereo not drawn) | Change in IOP (Oryctolagus cuniculus [1]): 0 mmHg; Change in IOP (Oryctolagus cuniculus [2]): 7.6 mmHg; Change in IOP (Oryctolagus cuniculus [3]): 5 mmHg; Change in IOP (Oryctolagus cuniculus [4]): 9.1 mmHg
18 nM | 9 nM | NCC(=O)NCC(=O)NS(=O)(=O)c1nc2ccc(OCCO)cc2s1 | Change in IOP (Oryctolagus cuniculus [1]): 0 mmHg; Change in IOP (Oryctolagus cuniculus [2]): 5.4 mmHg; Change in IOP (Oryctolagus cuniculus [3]): 3.3 mmHg; Change in IOP (Oryctolagus cuniculus [4]): 7 mmHg; kin: 3.1 h⁻¹; kin [5]: 6.4 h⁻¹; logD [6]: 1.85; solubility (physchem): 50 mM (≈ 19.4 mg/mL)
15 nM | 11 nM | CN(CC(=O)NS(=O)(=O)c1nc2ccc(O)cc2s1)C(=N)N | –
12 nM | 10 nM | CN(CC(=O)Nc1ccc2nc(S(N)(=O)=O)sc2c1)C(=N)N | –
12 nM | 21 nM | NCC(=O)NCC(=O)NCCC(=O)Nc1nnc(S(N)(=O)=O)s1 | –
